Experimental data reported in ChEMBL document CHEMBL5390201, “The Natural Alkaloid (-)-N-Hydroxyapiosporamide Suppresses Colorectal Tumor Progression as an NF-κB Pathway Inhibitor by Targeting the TAK1-TRAF6 Complex” (J Nat Prod, 2023).
Active and inactive are the calls of the source. No cut-off for these calls is given here.

Experiments:
Mus musculus [1] = assay: In vivo inhibition of NFkappaB activation in athymic BALB/c mouse xenografted with human HT-29 cells assessed as reduction in A20 gene expression in tumor at 5 to 15 mg/kg, ip administered every other day and measured after 14 days by qRT-PCR analysis; format: functional, organism-based; details: dose 5-15 mg/kg, time 14.0 day
HCT-116 [2] = assay: Induction of apoptosis in human HCT-116 cells assessed as inhibition of caspase 8 protein expression measured for 24 hrs by Western blot analysis; format: functional, cell-based; details: dose 0-10 µM
Mus musculus [3] = assay: Anti-inflammatory activity in AOM/DSS-induced BALB/c mouse model inflammatory bowel disease assessed as reduction in colon thickness at 5 to 10 mg/kg, ip pretreated with AOM for 7 days further replaced with DSS for 7 days and repeated for 2 times followed by every 2 days compound treatment for […] starting from day 50 and measured once a week; format: functional, organism-based; details: dose 5-10 mg/kg, time 21.0 day
HT-29 [4] = assay: Induction of apoptosis in human HT-29 cells assessed as viable cells at 0.25 uM incubated for 24 hrs by Annexin V-FITC/PI staining based flow cytometric analysis (reference value: 93 %); format: functional; details: read-out: Activity
HT-29 [5] = assay: Antitumor activity against human HT-29 cells xenografted in athymic nude BALB/c mouse assessed as reduction in tumor volume at 5 to 15 mg/kg, ip administered every other day and measured every other day for 16 days; format: functional, organism-based; details: dose 5-15 mg/kg, time 16.0 day
HT-29 [6] = assay: Induction of apoptosis in human HT-29 cells assessed as viable cells at 5 uM incubated for 24 hrs by Annexin V-FITC/PI staining based flow cytometric analysis (reference value: 88.3 %); format: functional; details: read-out: Activity
Mus musculus [7] = assay: In vivo inhibition of NFkappaB activation in LPS-induced BALB/c mouse model of endotoxin shock assessed as reduction in TNF-alpha level in serum at 5 mg/kg, ip pretreated for 4 hrs followed by LPS stimulation for 1 hr by ELISA; format: functional, organism-based; details: time 5.0 hrs
HCT-116 [8] = assay: Induction of cell cycle arrest in human HCT-116 cells assessed as accumulation of cells at G2/M phase at 5 uM by RNase/PI staining based flow cytometry analysis (reference value: 23.15 %); format: functional
[9] = Toxicity in athymic nude BALB/c mouse xenografted with human HT-29 cells assessed as reduction in body weight at 5 to 15 mg/kg, ip administered every other day and measured every other day for 16 days; format: organism-based; details: in vivo, 384 h, dose 5-15 mg/kg, time 16 day
Mus musculus [10] = assay: In vivo inhibition of NFkappaB activation in athymic BALB/c mouse xenografted with human HCT-116 cells assessed as reduction in A20 gene expression in tumor at 15 mg/kg, ip administered every other day and measured after 14 days by qRT-PCR analysis; format: functional, organism-based; details: time 14.0 day
HCT-116 [11] = assay: Induction of cell death in human HCT-116 cells at 0.5 to 10 uM pretreated with Z-VAD-FMK for 1 hr followed by compound addition and measured after 24 hrs by SRB assay; format: functional, cell-based; details: dose 0.5-10 µM
HCT-116 [12] = assay: Induction of cell cycle arrest in human HCT-116 cells assessed as accumulation of cells at G0/G1 phase at 1 uM by RNase/PI staining based flow cytometry analysis (reference value: 33.08 %); format: functional
HCT-116 [13] = assay: Induction of apoptosis in human HCT-116 cells assessed as necrotic cells at 10 uM incubated for 24 hrs by Annexin V-FITC/PI staining based flow cytometric analysis (reference value: 1.1 %); format: functional
SW480 = assay: Cytotoxicity against human SW480 cells assessed as decrease in cell viability incubated for 48 hrs by SRB assay; format: functional, cell-based; details: SW480, 48 h
HCT-116 [14] = assay: Induction of apoptosis in human HCT-116 cells assessed as inhibition of caspase 3 protein expression measured for 24 hrs by Western blot analysis; format: functional, cell-based; details: dose 0-10 µM
HCT-116 [15] = assay: Induction of apoptosis in human HCT-116 cells assessed as increase in cleavage of PARP measured for 24 hrs by Western blot analysis; format: functional, cell-based; details: dose 0-10 µM
RKO = assay: Cytotoxicity against human RKO cells assessed as decrease in cell viability incubated for 48 hrs by SRB assay; format: functional, cell-based
[16] = Toxicity in athymic nude BALB/c mouse xenografted with human HCT-116 cells assessed as pathological changes in liver at 5 to 15 mg/kg, ip administered every other day and measured after 14 days by hematoxylin and eosin staining-based microscopic analysis; format: organism-based; details: in vivo, 336 h, dose 5-15 mg/kg, time 14 day
HCT-116 [17] = assay: Induction of apoptosis in human HCT-116 cells assessed as late apoptotic cells at 1 uM incubated for 24 hrs by Annexin V-FITC/PI staining based flow cytometric analysis (reference value: 2.9 %); format: functional
HCT-116 [18] = assay: Induction of apoptosis in human HCT-116 cells assessed as early apoptotic cells at 1 uM incubated for 24 hrs by Annexin V-FITC/PI staining based flow cytometric analysis (reference value: 7.22 %); format: functional
[19] = Toxicity in athymic nude BALB/c mouse xenografted with human HCT-116 cells assessed as pathological changes in heart at 5 to 15 mg/kg, ip administered every other day and measured after 14 days by hematoxylin and eosin staining-based microscopic analysis; format: organism-based; details: in vivo, 336 h, dose 5-15 mg/kg, time 14 day
HCT-116 [20] = assay: Induction of cell cycle arrest in human HCT-116 cells assessed as decrease in Cdc25c protein expression upto 10 uM incubated for 24 hrs by Western blot analysis; format: functional, cell-based
HT-29 [21] = assay: Induction of cell cycle arrest in human HT-29 cells assessed as accumulation of cells at S phase at 10 uM by RNase/PI staining based flow cytometry analysis (reference value: 39.34%); format: functional
[22] = target: Nuclear factor NF-kappa-B complex (Homo sapiens) (UniProt Q00653+P19838+Q04206); assay: Inhibition of TNF-alpha induced NFkappaB activation in human HT-29 cells assessed as inhibition of IL-8 production at 2 uM pretreated for 24 hrs followed by TNFalpha stimulation for 4 hrs by ELISA; format: cell-based; details: time 28.0 hrs
Chain of Nuclear factor NF-kappa-B complex (Homo sapiens) (P19838 whole entry, looked up): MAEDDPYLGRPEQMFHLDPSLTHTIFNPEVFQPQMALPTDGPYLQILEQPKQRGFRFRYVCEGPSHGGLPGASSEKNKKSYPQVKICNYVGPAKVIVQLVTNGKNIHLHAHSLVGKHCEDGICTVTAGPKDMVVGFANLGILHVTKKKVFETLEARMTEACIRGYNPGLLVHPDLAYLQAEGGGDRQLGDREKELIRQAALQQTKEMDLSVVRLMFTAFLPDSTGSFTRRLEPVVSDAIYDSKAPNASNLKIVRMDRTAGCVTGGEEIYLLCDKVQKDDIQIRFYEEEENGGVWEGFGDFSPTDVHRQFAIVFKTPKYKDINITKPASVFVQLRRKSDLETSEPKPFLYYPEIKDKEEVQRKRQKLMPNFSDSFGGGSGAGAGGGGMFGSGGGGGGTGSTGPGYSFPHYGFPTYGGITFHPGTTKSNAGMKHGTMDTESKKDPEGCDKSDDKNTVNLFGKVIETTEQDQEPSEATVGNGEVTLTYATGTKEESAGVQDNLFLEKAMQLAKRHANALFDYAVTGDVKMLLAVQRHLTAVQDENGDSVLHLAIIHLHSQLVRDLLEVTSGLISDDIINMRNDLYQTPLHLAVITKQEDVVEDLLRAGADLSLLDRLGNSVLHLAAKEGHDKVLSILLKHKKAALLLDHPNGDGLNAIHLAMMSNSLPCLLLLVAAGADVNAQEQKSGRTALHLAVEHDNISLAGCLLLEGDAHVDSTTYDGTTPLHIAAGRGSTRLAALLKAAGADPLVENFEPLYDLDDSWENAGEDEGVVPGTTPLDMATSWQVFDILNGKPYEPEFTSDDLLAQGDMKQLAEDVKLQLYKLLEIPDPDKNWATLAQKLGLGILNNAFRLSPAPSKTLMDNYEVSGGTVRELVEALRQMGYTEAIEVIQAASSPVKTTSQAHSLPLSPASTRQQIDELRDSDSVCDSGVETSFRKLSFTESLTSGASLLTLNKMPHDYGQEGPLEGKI
Chain of Nuclear factor NF-kappa-B complex (Homo sapiens) (Q00653 whole entry, looked up): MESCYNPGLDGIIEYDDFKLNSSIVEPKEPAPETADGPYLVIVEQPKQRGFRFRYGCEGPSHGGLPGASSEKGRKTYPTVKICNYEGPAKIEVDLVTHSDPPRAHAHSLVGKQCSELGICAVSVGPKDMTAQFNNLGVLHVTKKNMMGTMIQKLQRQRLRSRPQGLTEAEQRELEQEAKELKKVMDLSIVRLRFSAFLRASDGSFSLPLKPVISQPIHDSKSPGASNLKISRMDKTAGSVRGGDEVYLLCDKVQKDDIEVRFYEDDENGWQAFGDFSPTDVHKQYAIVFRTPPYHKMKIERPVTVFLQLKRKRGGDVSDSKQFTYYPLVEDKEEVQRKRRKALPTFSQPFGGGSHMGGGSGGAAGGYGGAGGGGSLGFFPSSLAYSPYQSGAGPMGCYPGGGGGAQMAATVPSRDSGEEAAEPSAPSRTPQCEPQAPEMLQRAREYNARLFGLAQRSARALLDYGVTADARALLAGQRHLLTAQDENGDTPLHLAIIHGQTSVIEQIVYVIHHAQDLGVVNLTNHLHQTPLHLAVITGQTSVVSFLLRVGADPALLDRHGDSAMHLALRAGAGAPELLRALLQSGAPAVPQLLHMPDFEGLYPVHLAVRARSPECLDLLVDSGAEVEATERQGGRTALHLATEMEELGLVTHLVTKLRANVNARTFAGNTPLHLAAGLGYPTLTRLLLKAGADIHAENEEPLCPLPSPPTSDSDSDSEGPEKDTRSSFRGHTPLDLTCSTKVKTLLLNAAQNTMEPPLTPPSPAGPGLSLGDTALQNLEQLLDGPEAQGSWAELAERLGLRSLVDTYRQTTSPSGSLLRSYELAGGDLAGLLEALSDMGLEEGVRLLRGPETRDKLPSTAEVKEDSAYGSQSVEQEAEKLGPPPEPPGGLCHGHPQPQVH
Chain of Nuclear factor NF-kappa-B complex (Homo sapiens) (Q04206 whole entry, looked up): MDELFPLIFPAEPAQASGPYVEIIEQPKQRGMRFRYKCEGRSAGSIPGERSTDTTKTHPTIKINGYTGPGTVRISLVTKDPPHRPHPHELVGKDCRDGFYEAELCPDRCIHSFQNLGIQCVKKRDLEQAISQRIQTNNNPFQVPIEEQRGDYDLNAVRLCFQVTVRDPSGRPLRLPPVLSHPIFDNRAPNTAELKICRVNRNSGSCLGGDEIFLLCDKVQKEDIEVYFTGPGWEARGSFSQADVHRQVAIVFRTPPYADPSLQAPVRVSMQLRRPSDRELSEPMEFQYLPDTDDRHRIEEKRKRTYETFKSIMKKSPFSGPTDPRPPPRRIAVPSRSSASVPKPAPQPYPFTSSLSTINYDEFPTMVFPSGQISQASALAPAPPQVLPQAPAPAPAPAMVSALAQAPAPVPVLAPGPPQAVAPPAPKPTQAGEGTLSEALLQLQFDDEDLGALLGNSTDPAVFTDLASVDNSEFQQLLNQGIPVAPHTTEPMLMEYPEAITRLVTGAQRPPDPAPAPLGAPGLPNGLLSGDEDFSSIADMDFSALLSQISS

[23] = Toxicity in athymic nude BALB/c mouse xenografted with human HT-29 cells assessed as pathological changes in lungs at 5 to 15 mg/kg, ip administered every other day and measured after 14 days by hematoxylin and eosin staining-based microscopic analysis; format: organism-based; details: in vivo, 336 h, dose 5-15 mg/kg, time 14 day
HCT-116 [24] = assay: Induction of apoptosis in human HCT-116 cells assessed as early apoptotic cells at 10 uM incubated for 24 hrs by Annexin V-FITC/PI staining based flow cytometric analysis (reference value: 7.22 %); format: functional
Mus musculus [25] = assay: In vivo inhibition of NFkappaB activation in athymic BALB/c mouse xenografted with human HT-29 cells assessed as reduction in IL-8 gene expression in tumor at 5 to 15 mg/kg, ip administered every other day and measured after 14 days by qRT-PCR analysis; format: functional, organism-based; details: dose 5-15 mg/kg, time 14.0 day
HCT-116 [26] = assay: Antitumor activity against human HCT-116 cells xenografted in athymic nude BALB/c mouse assessed as induction of autophagy by measuring reduction in p62 expression in tumor at 15 mg/kg, ip administered every other day and measured after 14 days by immunohistochemistry analysis; format: functional, organism-based; details: time 14.0 day
HT-29 [27] = assay: Induction of apoptosis in human HT-29 cells assessed as early apoptotic cells at 0.25 uM incubated for 24 hrs by Annexin V-FITC/PI staining based flow cytometric analysis (reference value: 5.29 %); format: functional
HCT-116 [28] = assay: Induction of apoptosis in human HCT-116 cells assessed as late apoptotic cells at 0.25 uM incubated for 24 hrs by Annexin V-FITC/PI staining based flow cytometric analysis (reference value: 2.9 %); format: functional

Q: For C[C@@H]1CC[C@H]2[C@H](C(=O)c3c(O)c([C@@]4(O)CC[C@@H](O)[C@H]5O[C@H]54)cn(O)c3=O)[C@H](C)C=C[C@@H]2C1, which inhibition (Mus musculus [1]) is on record?
A: Active

Q: What about the Activity (HCT-116 [2]) of the same molecule?
A: Dose-Dependent Effect

Q: What about the Activity (Mus musculus [3]) of the same molecule?
A: Active

Q: And the viability at 0.25 µM (HT-29 [4])?
A: 85.9%

Q: And the Activity (HT-29 [5])?
A: Active

Q: And the viability at 5 µM (HT-29 [6])?
A: 49.5%

Q: What about the inhibition (Mus musculus [7]) of the same molecule?
A: Active

Q: And the Activity (HCT-116 [8])?
A: 15.66%

Q: And the Activity [9]?
A: Non-Toxic

Q: And the inhibition (Mus musculus [10])?
A: Active

Q: What about the inhibition (HCT-116 [11]) of the same molecule?
A: inactive

Q: And the Activity (HCT-116 [12])?
A: 36.23%

Q: And the Activity (HCT-116 [13])?
A: 1.56%

Q: And the IC50 (SW480)?
A: 570 nM

Q: What about the Activity (HCT-116 [14]) of the same molecule?
A: Dose-Dependent Effect

Q: What about the Activity (HCT-116 [15]) of the same molecule?
A: Dose-Dependent Effect

Q: What about the IC50 (RKO) of the same molecule?
A: 570 nM

Q: And the Activity [16]?
A: Non-Toxic

Q: What about the Activity (HCT-116 [17]) of the same molecule?
A: 47%

Q: What about the Activity (HCT-116 [18]) of the same molecule?
A: 18.6%

Q: And the Activity [19]?
A: Non-Toxic

Q: What about the Activity (HCT-116 [20]) of the same molecule?
A: Active

Q: And the Activity (HT-29 [21])?
A: 26.65%

Q: What about the inhibition [22] of the same molecule?
A: Active

Q: What about the Activity [23] of the same molecule?
A: Non-Toxic

Q: What about the Activity (HCT-116 [24]) of the same molecule?
A: 12.3%

Q: And the inhibition (Mus musculus [25])?
A: Active

Q: What about the Activity (HCT-116 [26]) of the same molecule?
A: Active

Q: And the Activity (HT-29 [27])?
A: 12.6%

Q: What about the Activity (HCT-116 [28]) of the same molecule?
A: 28.1%
